The NIST ThermoML archive (doi:10.1016/j.jct.2012.06.030)
± gives the expanded uncertainty stated by the source.

Experiment: excess molar enthalpy (molar enthalpy of mixing); xn = mol fraction of the nth substance listed
Settings: 101 kPa, Liquid, isothermal titration calorimeter

CCCCCC[n+]1ccc2ccccc2c1.N#C[S-] [2-hexylisoquinolinium thiocyanate] + O
Settings | excess molar enthalpy [kJ/mol]
298.15 K, x1 = 0.0916 | 0.137 ± 0.002
298.15 K, x1 = 0.0938 | 0.14 ± 0.002
298.15 K, x1 = 0.0961 | 0.144 ± 0.002
298.15 K, x1 = 0.0985 | 0.147 ± 0.002
298.15 K, x1 = 0.101 | 0.151 ± 0.002
298.15 K, x1 = 0.1036 | 0.154 ± 0.002
298.15 K, x1 = 0.1064 | 0.158 ± 0.003
298.15 K, x1 = 0.1093 | 0.162 ± 0.003
298.15 K, x1 = 0.1125 | 0.167 ± 0.003
298.15 K, x1 = 0.1157 | 0.171 ± 0.003
298.15 K, x1 = 0.1192 | 0.176 ± 0.003
298.15 K, x1 = 0.1229 | 0.182 ± 0.003
298.15 K, x1 = 0.1264 | 0.186 ± 0.003
298.15 K, x1 = 0.1301 | 0.192 ± 0.003
298.15 K, x1 = 0.134 | 0.197 ± 0.003
298.15 K, x1 = 0.1381 | 0.203 ± 0.003
298.15 K, x1 = 0.1426 | 0.21 ± 0.003
298.15 K, x1 = 0.1473 | 0.216 ± 0.003
298.15 K, x1 = 0.1523 | 0.223 ± 0.003
298.15 K, x1 = 0.1577 | 0.231 ± 0.003
298.15 K, x1 = 0.1635 | 0.239 ± 0.003
298.15 K, x1 = 0.1697 | 0.248 ± 0.004
298.15 K, x1 = 0.1764 | 0.258 ± 0.004
298.15 K, x1 = 0.1836 | 0.268 ± 0.004
298.15 K, x1 = 0.1915 | 0.279 ± 0.004
298.15 K, x1 = 0.2001 | 0.291 ± 0.004
298.15 K, x1 = 0.2095 | 0.304 ± 0.004
298.15 K, x1 = 0.2198 | 0.318 ± 0.004
298.15 K, x1 = 0.2312 | 0.334 ± 0.005
298.15 K, x1 = 0.2439 | 0.349 ± 0.005
298.15 K, x1 = 0.258 | 0.354 ± 0.005
298.15 K, x1 = 0.2738 | 0.348 ± 0.005
298.15 K, x1 = 0.2917 | 0.322 ± 0.004
298.15 K, x1 = 0.3095 | 0.289 ± 0.004
298.15 K, x1 = 0.3296 | 0.243 ± 0.004
298.15 K, x1 = 0.3525 | 0.188 ± 0.003
298.15 K, x1 = 0.3749 | 0.136 ± 0.002
298.15 K, x1 = 0.4002 | 0.0791 ± 0.0017
298.15 K, x1 = 0.424 | 0.0281 ± 0.0013
298.15 K, x1 = 0.4509 | -0.0257 ± 0.0013
298.15 K, x1 = 0.4749 | -0.0695 ± 0.0016
298.15 K, x1 = 0.5016 | -0.113 ± 0.002
298.15 K, x1 = 0.5315 | -0.155 ± 0.003
298.15 K, x1 = 0.5562 | -0.184 ± 0.003
298.15 K, x1 = 0.5833 | -0.209 ± 0.003
298.15 K, x1 = 0.6133 | -0.23 ± 0.003
298.15 K, x1 = 0.6464 | -0.245 ± 0.004
298.15 K, x1 = 0.6834 | -0.252 ± 0.004
298.15 K, x1 = 0.7102 | -0.25 ± 0.004
298.15 K, x1 = 0.7393 | -0.244 ± 0.004
298.15 K, x1 = 0.7708 | -0.231 ± 0.003
298.15 K, x1 = 0.8051 | -0.21 ± 0.003
298.15 K, x1 = 0.8229 | -0.197 ± 0.003
298.15 K, x1 = 0.8415 | -0.182 ± 0.003
298.15 K, x1 = 0.861 | -0.163 ± 0.003
298.15 K, x1 = 0.8815 | -0.143 ± 0.002
298.15 K, x1 = 0.9029 | -0.12 ± 0.002
298.15 K, x1 = 0.9253 | -0.094 ± 0.0018
298.15 K, x1 = 0.949 | -0.0652 ± 0.0015
298.15 K, x1 = 0.9738 | -0.0334 ± 0.0012
303.15 K, x1 = 0.0899 | 0.133 ± 0.002
303.15 K, x1 = 0.092 | 0.136 ± 0.002
303.15 K, x1 = 0.0942 | 0.139 ± 0.002
303.15 K, x1 = 0.0965 | 0.142 ± 0.002
303.15 K, x1 = 0.099 | 0.145 ± 0.002
303.15 K, x1 = 0.1016 | 0.149 ± 0.002
303.15 K, x1 = 0.1043 | 0.153 ± 0.002
303.15 K, x1 = 0.1071 | 0.156 ± 0.003
303.15 K, x1 = 0.1102 | 0.161 ± 0.003
303.15 K, x1 = 0.1134 | 0.165 ± 0.003
303.15 K, x1 = 0.1168 | 0.17 ± 0.003
303.15 K, x1 = 0.1204 | 0.175 ± 0.003
303.15 K, x1 = 0.1238 | 0.179 ± 0.003
303.15 K, x1 = 0.1274 | 0.184 ± 0.003
303.15 K, x1 = 0.1312 | 0.189 ± 0.003
303.15 K, x1 = 0.1352 | 0.195 ± 0.003
303.15 K, x1 = 0.1395 | 0.201 ± 0.003
303.15 K, x1 = 0.1441 | 0.207 ± 0.003
303.15 K, x1 = 0.1489 | 0.214 ± 0.003
303.15 K, x1 = 0.1542 | 0.221 ± 0.003
303.15 K, x1 = 0.1598 | 0.229 ± 0.003
303.15 K, x1 = 0.1658 | 0.237 ± 0.003
303.15 K, x1 = 0.1723 | 0.246 ± 0.004
303.15 K, x1 = 0.1793 | 0.256 ± 0.004
303.15 K, x1 = 0.187 | 0.266 ± 0.004
303.15 K, x1 = 0.1953 | 0.278 ± 0.004
303.15 K, x1 = 0.2044 | 0.29 ± 0.004
303.15 K, x1 = 0.2144 | 0.304 ± 0.004
303.15 K, x1 = 0.2254 | 0.313 ± 0.004
303.15 K, x1 = 0.2375 | 0.326 ± 0.004
